From patent publication US9642874B2, “Compositions of selenoorganic compounds and methods of use thereof” (Alltech, Inc., priority 2014, dated 2017) come the findings set out here.

One assay concerns G6pc. Kind of assay: G6pc mRNA expression (QRT-PCR) in AML-12 cells. It counts as cell-based, mouse. The following applies: insulin 10 and 100 nM. As for the experimental part: (§1) For RNA analysis of insulin receptor (Insr), insulin like growth factor receptor (Igf1r), and Glucose-6-Phosphatase (G6pc), AML-12 cells were amplified in ITS, Dex and FBS-containing DMEM/F12 media, and cultured on 24-well (6.7×10^4 cells/well) plates in 10% FBS ITS-free DMEM/F12 media with or without Dex overnight. These cells were treated with control (water) or various compounds (diluted in 10% FBS ITS-free DMEM/F12 media with or without Dex) for 6 hours, 24 hours, or 48 hours.
(§2) In some experiments, the AML-12 cells were washed twice with PBS after the compound treatments for 24 hours, and then incubated with selenium compounds (150 or 300 ppb of each compound) in the presence or absence of insulin (10 or 100 nM), 0.1 mM 8-CPT (Sigma), or 0.5 μM Dex in serum-free, glucose/phenol red-free DMEM media supplemented with 20 mM lactose and 2 mM pyruvate, and 15 mM HEPES (glucose-production media) for another 6 hours. After treatments, cell media were collected and subjected to glucose assays using Abcam glucose assay kit according to the manufacturer's protocol. […]
(§3) Total RNA from these cells was isolated using Trizol (Invitrogen) according to the manufacturer's protocol, and then incubated with DNase I to remove any potential contaminated genomic DNA. […] Three to six samples were analyzed in each treatment group. […]

For a further assay, the system named is Insr. Kind of assay: Insr mRNA expression (QRT-PCR) in AML-12 cells. The following applies: insulin alone, 6 hours, without 8-CPT/Dex. It counts as cell-based, mouse. The protocol:
as §1, §2, §3

For “insulin: insulin (10 or 100 nM, Sigma) used as comparator and cotreatment”, the G6pc expression result in the assay on G6pc (6 hours, FBS/ITS/Dex-free media) is given as “significantly inhibited G6pc expression”. In addition, the “8-CPT/Dex-induced G6pc expression” value in the assay with G6pc (vs 8-CPT/Dex group) is reported as “significantly decreased 8-CPT/Dex-induced G6pc expression”. The Insr expression result with Insr is on record as “did not increase”.
